Experimental findings from patent publication US20260124214A1, “HETEROCYCLIC COMPOUNDS FOR USE IN THE TREATMENT OF CANCER” (ARTIOS PHARMA LIMITED, priority 2021, published 2026) are described below.

pKi: −log10 of the molar value. Counter-ions that a name gives are not always drawn.

This assay addresses T1, Human Polθ polymerase domain (aa1820-2590) (Homo sapiens, UniProt O75417).
T1 construct: Human Polθ polymerase domain (aa1820-2590) was expressed in E. Coli; made in house; host or cells: E. coli
T1 sequence (O75417 1820-2590): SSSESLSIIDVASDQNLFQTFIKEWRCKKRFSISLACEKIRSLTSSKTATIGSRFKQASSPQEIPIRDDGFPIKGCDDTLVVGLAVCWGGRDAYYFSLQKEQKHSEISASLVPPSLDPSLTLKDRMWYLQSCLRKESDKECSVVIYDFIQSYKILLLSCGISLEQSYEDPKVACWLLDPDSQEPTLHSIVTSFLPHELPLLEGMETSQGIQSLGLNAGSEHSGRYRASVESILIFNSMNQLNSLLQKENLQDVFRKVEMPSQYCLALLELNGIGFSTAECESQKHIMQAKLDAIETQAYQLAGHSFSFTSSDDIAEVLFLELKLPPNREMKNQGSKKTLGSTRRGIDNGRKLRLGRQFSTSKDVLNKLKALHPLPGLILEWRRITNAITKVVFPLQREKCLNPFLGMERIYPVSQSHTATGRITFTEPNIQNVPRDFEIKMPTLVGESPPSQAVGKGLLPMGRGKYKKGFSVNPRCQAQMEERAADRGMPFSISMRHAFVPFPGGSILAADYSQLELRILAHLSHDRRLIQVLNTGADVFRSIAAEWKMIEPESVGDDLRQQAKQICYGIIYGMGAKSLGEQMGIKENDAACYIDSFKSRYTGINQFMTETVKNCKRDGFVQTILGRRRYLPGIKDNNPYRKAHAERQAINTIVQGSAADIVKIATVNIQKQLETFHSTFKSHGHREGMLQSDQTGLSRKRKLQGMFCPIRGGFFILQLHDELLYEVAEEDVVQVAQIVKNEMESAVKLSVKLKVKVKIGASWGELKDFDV
Nature of the assay: Polθ Polymerase Domain WT KI Assay (PicoGreen). The assay is classed as biochemical. Particulars: 100 nM DNA substrate, 0.156 nM Polθ, initial rates vs inhibitor concentration. How it is done:
A PicoGreen assay was used to measure the KI values of reversible compounds that inhibit the activity of Polθ in vitro.
Human Polθ polymerase domain (aa1820-2590) was expressed in E. Coli, purified, aliquoted and stored at −80° C. until required. Polθ substrate was generated from a 1.2:1 mix of DNA II Short to DNA II Long to give a final concentration of […] substrate in annealing buffer (20 mM Tris pH 7.5, 50 mM NaCl). The substrate was heated in 50 mL aliquots to 95° C. in a heating block for 5 min before the heating block switched off, the reaction left to cool to rt and stored at −20° C. until required.
Assay measurements were performed with 1× buffer comprising 25 mM Tris pH 7.5, 12.5 mM NaCl, […], 5% (v/v) glycerol, 0.01% v/v Triton x-100, 0.1 mg/ml BSA, 1 mM DTT. […] 100 nL of 23×1:1.5-fold serial dilutions and a DMSO only control were dispensed using the Tecan dispenser into Greiner 384 well black low volume plates (product code 784076). DMSO concentration was maintained at 1% of the final assay volume by back filling with DMSO.
To stop the reaction, 5 μL of a solution containing 25 mM Tris-HCl PH 7.5 and 20 mM EDTA was added at […] (t=0, 15, 30, 60, 90, 120, 150, 180 mins) using the Tempest's time delay function. The plates were covered during the time course to prevent evaporation. After completing the assay, 5 μL of detection reagent (25 mM Tris-HCl pH 7.5 and 2.5% (v/v) PicoGreen) was dispensed into the wells using a Tempest liquid handler (Formulatrix) and plates subsequently read on the CLARIOstar Plus (BMG Labtech) using the default optical settings for fluorescein and the auto gain/focus settings.
All data analysis was carried out using GraphPad Prism V.8 (GraphPad Software Inc, San Diego, CA). Time course data for each inhibitor concentration were fitted to the linear regression model in GraphPad Prism. Any time points where the control (DMSO only) reaction was no longer linear were excluded from the analysis. The initial rates (slopes) obtained from the linear regression were then plotted against inhibitor concentration and fitted to an inhibitor vs. response variable slope (four parameter) model on GraphPad Prism to determine the KI values.
Compound `Cc1cc(C(F)(F)F)cc(N2C(=O)C[C@@H]3CN(CC(C)O)c4c(F)cccc4N(C)C(=O)[C@H]32)n1` (mixture of isomers) [Example 130a, (3aR,11aS)-6-fluoro-5-((S/R)-2-hydroxypropyl)-10-methyl-1-(6-methyl-4-(trifluoromethyl)pyridin-2-yl)-1,3a,4,5,10,11a-hexahydro-2H-benzo[b]pyrrolo[2,3-f][1,4]diazocine-2,11(3H)-dione] gave a pKi of 7.93. Compound `Cc1cc(C(F)(F)F)cc(N2C(=O)C[C@@H]3CN(CC(C)O)c4c(Cl)cccc4N(C)C(=O)[C@H]32)n1` (mixture of isomers) [Example 131a, (3aR,11aS)-6-chloro-5-((S/R)-2-hydroxypropyl)-10-methyl-1-(6-methyl-4-(trifluoromethyl)pyridin-2-yl)-1,3a,4,5,10,11a-hexahydro-2H-benzo[b]pyrrolo[2,3-f][1,4]diazocine-2,11(3H)-dione] gave a negative-log Ki (pKi) of 8.70. This pKi is 0.77 log units higher than that of the compound before. In turn, `Cc1cc(C(F)(F)F)cc(N2C(=O)C[C@@H]3CN(Cc4cn5c(n4)[C@H](C)N(C)CC5)c4c(Cl)cccc4N(C)C(=O)[C@H]32)n1` (racemic) [Example 96b, (3aR,11aS)-6-Chloro-5-(((S/R)-7,8-dimethyl-5,6,7,8-tetrahydroimidazo[1,2-a]pyrazin-2-yl)methyl)-10-methyl-1-(6-methyl-4-(trifluoromethyl)pyridin-2-yl)-1,3a,4,5,10,11a-hexahydro-2H-benzo[b]pyrrolo[2,3-f][1,4]diazocine-2,11(3H)-dione] gave a pKi of 8.78. The result for `Cc1cc(C(F)(F)F)cc(N2C(=O)C[C@@H]3CN(C[C@@H]4CCCCN4)c4c(Cl)cccc4N(C)C(=O)[C@H]32)n1` (racemic) [Example 105b, (3aR,11aS)-6-Chloro-10-methyl-1-(6-methyl-4-(trifluoromethyl)pyridin-2-yl)-5-(((S/R)-piperidin-2-yl)methyl)-1,3a,4,5,10,11a-hexahydro-2H-benzo[b]pyrrolo[2,3-f][1,4]diazocine-2,11(3H)-dione] reads 8.53; that for `Cc1cc(C(F)(F)F)cc(N2C(=O)C[C@@H]3CN(C[C@H]4COCCN4)c4c(F)cccc4N(C)C(=O)[C@H]32)n1` (racemic) [Example 106b, (3aR,11aS)-6-Fluoro-10-methyl-1-(6-methyl-4-(trifluoromethyl)pyridin-2-yl)-5-(((S/R)-morpholin-3-yl)methyl)-1,3a,4,5,10,11a-hexahydro-2H-benzo[b]pyrrolo[2,3-f][1,4]diazocine-2,11(3H)-dione], 7.55. As to `Cc1cc(C(F)(F)F)cc(N2C(=O)C[C@@H]3CN(C[C@@H]4CCCN4)c4c(Cl)cccc4N(C)C(=O)[C@H]32)n1` (racemic) [Example 107b, (3aR,11aS)-6-Chloro-10-methyl-1-(6-methyl-4-(trifluoromethyl)pyridin-2-yl)-5-(((S/R)-pyrrolidin-2-yl)methyl)-1,3a,4,5,10,11a-hexahydro-2H-benzo[b]pyrrolo[2,3-f][1,4]diazocine-2,11(3H)-dione], the pKi was 8.28. Compound `Cc1cc(C(F)(F)F)cc(N2C(=O)C[C@@H]3CN(C[C@H]4COCCN4)c4c(Cl)cccc4N(C)C(=O)[C@H]32)n1` (racemic) [Example 108a, (3aR,11aS)-6-Chloro-10-methyl-1-(6-methyl-4-(trifluoromethyl)pyridin-2-yl)-5-(((S/R)-morpholin-3-yl)methyl)-1,3a,4,5,10,11a-hexahydro-2H-benzo[b]pyrrolo[2,3-f][1,4]diazocine-2,11(3H)-dione] gave a negative logarithm of the Ki (pKi) of 8.66.

`Cc1cc(C(F)(F)F)cc(N2C(=O)C[C@@H]3CN(C[C@@H]4CNCCO4)c4c(Cl)cccc4N(C)C(=O)[C@H]32)n1` (racemic) [Example 109b, (3aR,11aS)-6-Chloro-10-methyl-1-(6-methyl-4-(trifluoromethyl)pyridin-2-yl)-5-(((S/R)-morpholin-2-yl)methyl)-1,3a,4,5,10,11a-hexahydro-2H-benzo[b]pyrrolo[2,3-f][1,4]diazocine-2,11(3H)-dione] had a pKi of 8.69. Consider `Cc1cc(C(F)(F)F)cc(N2C(=O)C[C@@H]3CN(C[C@H]4COCCN4)c4c(C)cccc4N(C)C(=O)[C@H]32)n1` (racemic) [Example 112b, (3aR,11aS)-6,10-Dimethyl-1-(6-methyl-4-(trifluoromethyl)pyridin-2-yl)-5-(((S/R)-morpholin-3-yl)methyl)-1,3a,4,5,10,11a-hexahydro-2H-benzo[b]pyrrolo[2,3-f][1,4]diazocine-2,11(3H)-dione], for which the negative-log Ki (pKi) is 8.74. The compound `Cc1cc(C(F)(F)F)cc(N2C(=O)C[C@@H]3CN(Cc4cn5c(n4)[C@H](C)N(C)CC5)c4c(C)cccc4N(C)C(=O)[C@H]32)n1` (racemic) [Example 116b, (3aR,11aS)-5-(((S/R)-7,8-Dimethyl-5,6,7,8-tetrahydroimidazo[1,2-a]pyrazin-2-yl)methyl)-6,10-dimethyl-1-(6-methyl-4-(trifluoromethyl)pyridin-2-yl)-1,3a,4,5,10,11a-hexahydro-2H-benzo[b]pyrrolo[2,3-f][1,4]diazocine-2,11(3H)-dione] showed a pKi of 9.38. The compound `Cc1cc(C(F)(F)F)cc(N2C(=O)C[C@@H]3CN(C[C@@H]4CCCCN4C)c4c(Cl)cccc4N(C)C(=O)[C@H]32)n1` (racemic) [Example 117b, (3aR,11aS)-6-Chloro-10-methyl-1-(6-methyl-4-(trifluoromethyl)pyridin-2-yl)-5-(((S/R)-1-methylpiperidin-2-yl)methyl)-1,3a,4,5,10,11a-hexahydro-2H-benzo[b]pyrrolo[2,3-f][1,4]diazocine-2,11(3H)-dione] showed a negative logarithm of the Ki (pKi) of 8.39. Compound `Cc1cc(C(F)(F)F)cc(N2C(=O)C[C@@H]3CN(C[C@@H]4CCCN4C)c4c(Cl)cccc4N(C)C(=O)[C@H]32)n1` (racemic) [Example 118b, (3aR,11aS)-6-Chloro-10-methyl-1-(6-methyl-4-(trifluoromethyl)pyridin-2-yl)-5-(((S/R)-1-methylpyrrolidin-2-yl)methyl)-1,3a,4,5,10,11a-hexahydro-2H-benzo[b]pyrrolo[2,3-f][1,4]diazocine-2,11(3H)-dione] had a negative-log Ki (pKi) of 8.22. On to `Cc1cc(C(F)(F)F)cc(N2C(=O)C[C@@H]3CN(C[C@H]4COCCN4C)c4c(Cl)cccc4N(C)C(=O)[C@H]32)n1` (racemic) [Example 119a, (3aR,11aS)-6-Chloro-10-methyl-1-(6-methyl-4-(trifluoromethyl)pyridin-2-yl)-5-(((S/R)-4-methylmorpholin-3-yl)methyl)-1,3a,4,5,10,11a-hexahydro-2H-benzo[b]pyrrolo[2,3-f][1,4]diazocine-2,11(3H)-dione], for which the pKi was 8.89.

`Cc1cc(C(F)(F)F)cc(N2C(=O)C[C@@H]3CN(C[C@@H]4CN(C)CCO4)c4c(Cl)cccc4N(C)C(=O)[C@H]32)n1` (racemic) [Example 120b, (3aR,11aS)-6-Chloro-10-methyl-1-(6-methyl-4-(trifluoromethyl)pyridin-2-yl)-5-(((S/R)-4-methylmorpholin-2-yl)methyl)-1,3a,4,5,10,11a-hexahydro-2H-benzo[b]pyrrolo[2,3-f][1,4]diazocine-2,11(3H)-dione hydrochloride] had a negative-log Ki (pKi) of 8.38.

By pKi is commonly meant the negative decadic logarithm of the Ki, by convention in mol/L. A higher pKi goes with a low Ki.
